According to patent publication US20210347709A1, “RADIOFLUORINATED GPC3-BINDING PEPTIDES FOR PET IMAGING OF HEPATOCELLULAR CARCINOMA” (University of Southern California, priority 2020, published 2021):
Where two headings read alike, the source gives them in different places.

Experiments:
[1] = MicroPET/CT imaging and biodistribution, HepG2 tumor model; type: in vivo, nude mice; conditions: both sexes, BALB/c nude, mouse, iv, 5.55 MBq, total radioactivity; for tissue to tissue ratio at 1 h / tissue to tissue ratio at 0.5 h / tissue to tissue ratio at 2 h: HepG2 (GPC3+) tumor bearing mice; for tissue to tissue ratio at 1 h / tissue uptake at 1 h: 60 min; for tissue to tissue ratio at 0.5 h / tissue uptake at 0.5 h: 30 min; for tissue to tissue ratio at 2 h / tissue uptake at 2 h: 120 min; for tissue uptake at 0.5 h / tissue uptake at 1 h / tissue uptake at 2 h: HepG2 (GPC3+) tumor model, PET
Description: (§1) MicroPET/CT Imaging and Biodistribution. MicroPET/CT scans were carried out using a Siemens Inveon PET/CT scanner (Siemens, Germany). Tumor-bearing mice (n=3/group) were intravenously injected with 5.55 MBq of Al[^18F]F-GP2076 or Al[^18F]F-GP2633 under isoflurane anesthesia. A ten-minute static PET scan for each animal was acquired at 30, 60, and 120 min after the injection. 3-Dimensional ordered subset expectation maximization (3D-OSEM) algorithm was used for the PET reconstruction, and CT was applied for attenuation correction. Detailed procedures for the microPET/CT imaging and biodistribution are provided in ESM.
(§2) All animal experiments were conducted according to the guideline of the Nanfang Hospital Animal Ethics Committee at the Southern Medical University. Male or female BALB/c nude mice (about 4-6 weeks old) were obtained from the Laboratory Animal Center at Southern Medical University. The HepG2 and McA-RH7777 HCC xenografts were established by subcutaneous injection of 1×10^6 tumor cells into the left shoulder of nude mice. The animals were used for in vivo studies when the tumors reached a size of 0.5-1 cm in diameter (4-6 weeks after inoculation).
(§3) Inveon Research Workplace (IRW) 3.0 software (Siemens, Germany) was used to measure the regions of interest (ROIs) determined by superimposing the ellipsoid volume of interest (VOI) on the target tissues. The radioactivity concentrations were measured by the mean pixel intensity within each VOI and converted to dose/ml using a calibration constant. Assuming the tissue density of 1 g/ml, the ROI was then converted to dose per gram and normalized as the percent injected dose per gram (% ID/g). Tumor-to-nontarget uptake ratios, including tumor-to-muscle (T/M), tumor-to-liver (T/L), and tumor-to-kidneys (T/K) ratios, were calculated by dividing the radioactivity uptake in tumor by that in the corresponding normal tissue or organ.

[2] = test system: GPC3-positive HepG2 tumor; test: as above; type: in vivo, nude mice; conditions: for Kidneys uptake / Liver uptake / Tumor uptake: HepG2 (GPC3+) tumor model; for Tumor uptake: decay-corrected
Description: as §1, §2, §3

[3] = HepG2 tumor / liver, read-out: Tumor-to-liver (T/L) uptake ratio
[4] = HepG2 tumor / muscle, read-out: Tumor-to-muscle (T/M) uptake ratio
[5] = intestine, read-out: Intestinal uptake
[6] = decay-corrected, read-out: Tumor uptake
[7] = kidneys, read-out: Kidneys uptake
[8] = muscle, read-out: Muscle uptake
[9] = tumor / kidneys, read-out: Tumor-to-kidneys (T/K) uptake ratio
[10] = HepG2 (GPC3+) tumor bearing mice, 30 min
[11] = HepG2 (GPC3+) tumor bearing mice, 60 min
[12] = HepG2 (GPC3+) tumor bearing mice, 120 min

A tissue to tissue ratio at 1 h ([1]; HepG2 tumor / kidneys, read-out: Tumor-to-kidneys (T/K) uptake ratio) of 0.31 ± 0.04, a tissue to tissue ratio at 0.5 h [1, 3] of 0.43 ± 0.06 and a tissue to tissue ratio at 1 h [1, 3] of 0.59 ± 0.14 were found for `CC(C)C[C@H](NC(=O)[C@H](CCCNC(=N)N)NC(=S)Nc1ccc(CC2CN(CC(=O)O)CCN(CC(=O)O)CCN2CC(=O)O)cc1)C(=O)N[C@@H](CC(N)=O)C(=O)N[C@H](C(=O)NCC(=O)NCC(=O)N[C@H](C(=O)N[C@@H](Cc1ccc(O)cc1)C(=O)N[C@@H](Cc1ccccc1)C(=O)N[C@@H](CC(C)C)C(=O)N[C@H](C(=O)N[C@H](C(=O)N[C@@H](CCCNC(=N)N)C(=O)N[C@@H](CCC(N)=O)C(=O)O)[C@@H](C)O)[C@@H](C)O)[C@@H](C)O)C(C)C` (single isomer, unassigned) [Al[^18F]F-GP2076] in this work. It also gave a tissue to tissue ratio at 2 h [1, 3] of 0.46 ± 0.4, a tissue to tissue ratio at 0.5 h [1, 4] of 5.56 ± 1.36 and a tissue to tissue ratio at 1 h [1, 4] of 5.13 ± 2.08. It also gave a tissue to tissue ratio at 2 h [1, 4] of 2.68 ± 0.29, a tissue uptake at 0.5 h ([1]; bone, read-out: Bone uptake) of 0.95 %ID/g and a tissue uptake at 1 h ([1]; bone, read-out: Bone uptake) of 0.35 %ID/g. It also gave a tissue uptake at 2 h ([1]; bone, read-out: Bone uptake) of 0.21 %ID/g, a tissue uptake at 0.5 h ([1]; brain, read-out: Brain uptake) of 0.63 %ID/g and a tissue uptake at 1 h ([1]; brain, read-out: Brain uptake) of 0.18 %ID/g. The tissue uptake at 2 h ([1]; brain, read-out: Brain uptake) was 0.13 %ID/g, the tissue uptake at 0.5 h ([1]; heart, read-out: Heart uptake) was 1.29 %ID/g and the tissue uptake at 1 h ([1]; heart, read-out: Heart uptake) was 1.05 %ID/g. For the same compound, the tissue uptake at 2 h ([1]; heart, read-out: Heart uptake) was 0.36 %ID/g, the tissue uptake at 0.5 h [1, 5] was 3.03 %ID/g and the tissue uptake at 1 h [1, 5] was 2.57 %ID/g. It also gave a tissue uptake at 2 h [1, 5] of 1.8 %ID/g, a tissue uptake at 0.5 h [1, 6] of 2.2 %ID/g and a tissue uptake at 1 h [1, 6] of 2.13 %ID/g. For the same compound, the tissue uptake at 2 h [1, 6] was 0.73 %ID/g, the tissue uptake at 0.5 h [1, 7] was 9.83 %ID/g and the tissue uptake at 1 h [1, 7] was 7.03 %ID/g. For the same compound, the tissue uptake at 2 h [1, 7] was 2.27 %ID/g, the tissue uptake at 0.5 h ([1]; liver, read-out: Liver uptake) was 5.1 %ID/g and the tissue uptake at 1 h ([1]; liver, read-out: Liver uptake) was 3.7 %ID/g. It also gave a tissue uptake at 2 h ([1]; liver, read-out: Liver uptake) of 2.07 %ID/g, a tissue uptake at 0.5 h ([1]; lung, read-out: Lung uptake) of 1.57 %ID/g and a tissue uptake at 1 h ([1]; lung, read-out: Lung uptake) of 0.78 %ID/g. For the same compound, the tissue uptake at 2 h ([1]; lung, read-out: Lung uptake) was 0.43 %ID/g, the tissue uptake at 0.5 h [1, 8] was 0.41 %ID/g and the tissue uptake at 1 h [1, 8] was 0.44 %ID/g. The tissue uptake at 2 h [1, 8] was 0.28 %ID/g, the tissue to tissue ratio at 0.5 h [1, 9] was 0.25 ± 0.11 and the tissue to tissue ratio at 2 h [1, 9] was 0.46 ± 0.46. For the same compound, the “Tumor-to-liver (T/L) uptake ratio” value [2, 10] was 0.43±0.06, the “Tumor-to-muscle (T/M) uptake ratio” value [2, 10] was 5.56±1.36 and the “Tumor-to-kidneys (T/K) uptake ratio” value [2, 11] was 0.31±0.04. For the same compound, the “Tumor-to-liver (T/L) uptake ratio” value [2, 11] was 0.59±0.14, the “Tumor-to-muscle (T/M) uptake ratio” value [2, 11] was 5.13±2.08 and the “Tumor-to-liver (T/L) uptake ratio” value [2, 12] was 0.46±0.40. The “Tumor-to-muscle (T/M) uptake ratio” value [2, 12] was 2.68±0.29, the Kidneys uptake ([2]; 30 min, PET) was 9.83±3.69 % ID/g and the Liver uptake ([2]; 30 min, PET) was 5.10±0.53 % ID/g. The Tumor uptake ([2]; 30 min, PET) was 2.20±0.36 % ID/g, the Kidneys uptake ([2]; 60 min, PET) was 7.03±2.32 % ID/g and the Liver uptake ([2]; 60 min, PET) was 3.70±0.98 % ID/g. For the same compound, the Tumor uptake ([2]; 60 min, PET) was 2.13±0.55 % ID/g, the Kidneys uptake ([2]; 120 min, PET) was 2.27 ± 1.07 % ID/g and the Liver uptake ([2]; 120 min, PET) was 2.07 ± 0.96 % ID/g. For the same compound, the Tumor uptake ([2]; 120 min, PET) was 0.73±0.32 % ID/g, the “defluorination in vivo (from low bone uptake)” value ([2]; PET, bone uptake) was “did not occur” and the “clearance / excretion route from the mouse body” value ([2]; as visualized by PET images) was “primarily through the hepatic pathway”.
